Source: patent US8076487B2, “Pyridone derivative and herbicide” (Kumiai Chemical Industry Co., Ltd., priority 2006, dated 2011)

How the values were obtained:
Type in all cases: in vivo
[1] = tested on: green foxtail (Setaria viridis (L.) P. Beauv.); experiment: Test Example 3: herbicidal effect by application to upland field (foliage treatment); details: 14th day after application; for herbicidal effect, Green Foxtail: foliage treatment, 1,000 g active ingredient per 1 hectare, greenhouse
In short: (§1)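 Field-soil pots sown with the four weed species and grown two weeks in a greenhouse, then sprayed over the whole plant with wettable powder in water at 1,000 g active ingredient/ha in 1,000 L/ha. Herbicidal effect scored against a rating standard 14 days after treatment.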

[2] = tested on: slender amaranth (Amaranthus viridis L.); experiment: as above; details: 14th day after application; for herbicidal effect, Slender Amaranth: foliage treatment, 1,000 g active ingredient per 1 hectare, greenhouse
In short: as §1

[3] = tested on: barnyardgrass (Echinochloa crus-galli (L.) P. Beauv. var. crus-galli); experiment: as above; details: 14th day after application; for herbicidal effect, Barnyardgrass: foliage treatment, 1,000 g active ingredient per 1 hectare, greenhouse
In short: as §1

[4] = tested on: velvetleaf (Abutilon theophrasti medicus); experiment: as above; details: 14th day after application; for herbicidal effect, Velvetleaf: foliage treatment, 1,000 g active ingredient per 1 hectare, greenhouse
In short: as §1

[5] = tested on: green foxtail (Setaria viridis (L.) P. Beauv.); experiment: Test Example 2: herbicidal effect by soil application to upland field; details: soil surface spray, upland field soil, 1,000 g active ingredient per hectare, 21st day after application
In short: (§2)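 Soil-applied wettable powder, 1,000 g a.i./ha, sprayed after sowing onto covered field soil. Effect rated on a standard scale 21 days later in a greenhouse.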

[6] = tested on: slender amaranth (Amaranthus viridis L.); experiment: as above; details: soil surface spray, upland field soil, 1,000 g active ingredient per hectare, 21st day after application
In short: as §2

[7] = tested on: barnyardgrass (Echinochloa crus-galli (L.) P. Beauv. var. crus-galli); experiment: as above; details: soil surface spray, upland field soil, 1,000 g active ingredient per hectare, 21st day after application
In short: as §2

[8] = tested on: velvetleaf (Abutilon theophrasti medicus); experiment: as above; details: soil surface spray, upland field soil, 1,000 g active ingredient per hectare, 21st day after application
In short: as §2

[9] = tested on: early watergrass (Echinochloa oryzicola Vasing); experiment: Test Example 1: herbicidal effect by soil application to paddy field; details: for herbicidal effect, Echinochloa oryzicola Vasing: paddy field soil application, active ingredient 1,000 g per 1 hectare, wettable powder added dropwise to water surface the day after sowing, examined on the 21st day after application
In short: (§3)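 Plants were sown in flooded (3 cm) paddy soil and evaluated for herbicidal effect 21 days after soil application in a greenhouse.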

[10] = tested on: Japanese bulrush (Scirpus juncoides Roxb.); experiment: as above; details: for herbicidal effect, Scirpus juncoides Roxb.: paddy field soil application, active ingredient 1,000 g per 1 hectare, wettable powder added dropwise to water surface the day after sowing, examined on the 21st day after application
In short: as §3

[11] = tested on: heartshape false pickerelweed (Monochoria vaginalis (Burm.f.) C.Presl); experiment: as above; details: for herbicidal effect, Monochoria vaginalis (Burm. f.) C. Presl: paddy field soil application, active ingredient 1,000 g per 1 hectare, wettable powder added dropwise to water surface the day after sowing, examined on the 21st day after application
In short: as §3

[12] = foliage treatment, plants grown two weeks, 1,000 g active ingredient per hectare
[13] = soil application to paddy field, rated by standard of Table 34

SMILES	herbicidal effect, Green Foxtail [1]	herbicidal effect, Slender Amaranth [2]	herbicidal effect, Barnyardgrass [3]	herbicidal effect, Velvetleaf [4]	herbicidal effect (index), Green Foxtail [5]	herbicidal effect (index), Slender Amaranth [6]	herbicidal effect (index), Barnyardgrass [7]	herbicidal effect (index), Velvetleaf [8]	herbicidal effect, Echinochloa oryzicola Vasing [9]	herbicidal effect, Scirpus juncoides Roxb. [10]	herbicidal effect, Monochoria vaginalis (Burm. f.) C. Presl [11]	herbicidal effect (index), Green Foxtail [1, 12]	herbicidal effect (index), Slender Amaranth [2, 12]	herbicidal effect (index), Barnyardgrass [3, 12]	herbicidal effect (index), Velvetleaf [4, 12]	herbicidal effect (index), Echinochloa oryzicola Vasing [9, 13]	herbicidal effect (index), Scirpus juncoides Roxb. [10, 13]	herbicidal effect (index), Monochoria vaginalis (Burm.f.) C.Presl [11, 13]
CCOCCn1c(C(F)(F)F)ccc(C(=O)c2cnn(C)c2O)c1=O [IV-34]	5 (90% or more of herbicidal effect and crop phytotoxicity)	5 (90% or more of herbicidal effect and crop phytotoxicity)	5 (90% or more of herbicidal effect and crop phytotoxicity)	5 (90% or more of herbicidal effect and crop phytotoxicity)	5 (90% or more of herbicidal effect and crop phytotoxicity)	5 (90% or more of herbicidal effect and crop phytotoxicity)	5 (90% or more of herbicidal effect and crop phytotoxicity)	5 (90% or more of herbicidal effect and crop phytotoxicity)	5 (90% or more of herbicidal effect and crop phytotoxicity)	5 (90% or more of herbicidal effect and crop phytotoxicity)	5 (90% or more of herbicidal effect and crop phytotoxicity)							
Cc1nn(C)c(O)c1C(=O)c1ccc(C(F)(F)F)n(-c2ccc(F)c(F)c2)c1=O [IV-86]	4 (70 to less than 90% of herbicidal effect and crop phytotoxicity)	5 (90% or more of herbicidal effect and crop phytotoxicity)	5 (90% or more of herbicidal effect and crop phytotoxicity)	5 (90% or more of herbicidal effect and crop phytotoxicity)	5 (90% or more of herbicidal effect and crop phytotoxicity)	5 (90% or more of herbicidal effect and crop phytotoxicity)	5 (90% or more of herbicidal effect and crop phytotoxicity)	5 (90% or more of herbicidal effect and crop phytotoxicity)	5 (90% or more of herbicidal effect and crop phytotoxicity)	4 (70 to less than 90% of herbicidal effect and crop phytotoxicity)	5 (90% or more of herbicidal effect and crop phytotoxicity)							
CCCSCn1c(C(F)(F)F)ccc(C(=O)C2=C(O)CCCC2=O)c1=O [I-50]					5 (90% or more of herbicidal effect and crop phytotoxicity)	5 (90% or more of herbicidal effect and crop phytotoxicity)	5 (90% or more of herbicidal effect and crop phytotoxicity)	5 (90% or more of herbicidal effect and crop phytotoxicity)	5 (90% or more of herbicidal effect and crop phytotoxicity)	5 (90% or more of herbicidal effect and crop phytotoxicity)	5 (90% or more of herbicidal effect and crop phytotoxicity)	3 (50 to less than 70% of herbicidal effect and crop phytotoxicity)	5 (90% or more of herbicidal effect and crop phytotoxicity)	5 (90% or more of herbicidal effect and crop phytotoxicity)	5 (90% or more of herbicidal effect and crop phytotoxicity)			
Cn1ncc(C(=O)c2ccc(C(F)(F)F)n(C)c2=O)c1OC(=O)c1ccccc1 [IV-197]	4 (70 to less than 90% of herbicidal effect and crop phytotoxicity)	5 (90% or more of herbicidal effect and crop phytotoxicity)	4 (70 to less than 90% of herbicidal effect and crop phytotoxicity)	5 (90% or more of herbicidal effect and crop phytotoxicity)	4 (70 to less than 90% of herbicidal effect and crop phytotoxicity)	5 (90% or more of herbicidal effect and crop phytotoxicity)	4 (70 to less than 90% of herbicidal effect and crop phytotoxicity)	5 (90% or more of herbicidal effect and crop phytotoxicity)	5 (90% or more of herbicidal effect and crop phytotoxicity)	5 (90% or more of herbicidal effect and crop phytotoxicity)	5 (90% or more of herbicidal effect and crop phytotoxicity)							
O=C1CCCC(O)=C1C(=O)c1ccc2ccccc2n1 [Comparative Compound 2, reference compound]	0 (0 to less than 10% of herbicidal effect and crop phytotoxicity)	1 (10 to less than 30% of herbicidal effect and crop phytotoxicity)	0 (0 to less than 10% of herbicidal effect and crop phytotoxicity)	5 (90% or more of herbicidal effect and crop phytotoxicity)	0 (0 to less than 10% of herbicidal effect and crop phytotoxicity)	2 (30 to less than 50% of herbicidal effect and crop phytotoxicity)	3 (50 to less than 70% of herbicidal effect and crop phytotoxicity)	2 (30 to less than 50% of herbicidal effect and crop phytotoxicity)								0 (0 to less than 10% of herbicidal effect and crop phytotoxicity)	0 (0 to less than 10% of herbicidal effect and crop phytotoxicity)	0 (0 to less than 10% of herbicidal effect and crop phytotoxicity)
COCCn1c(C(F)(F)F)ccc(C(=O)c2cnn(C)c2O)c1=O [IV-33]	5 (90% or more of herbicidal effect and crop phytotoxicity)	5 (90% or more of herbicidal effect and crop phytotoxicity)	5 (90% or more of herbicidal effect and crop phytotoxicity)	5 (90% or more of herbicidal effect and crop phytotoxicity)	5 (90% or more of herbicidal effect and crop phytotoxicity)	5 (90% or more of herbicidal effect and crop phytotoxicity)	5 (90% or more of herbicidal effect and crop phytotoxicity)	5 (90% or more of herbicidal effect and crop phytotoxicity)	5 (90% or more of herbicidal effect and crop phytotoxicity)	5 (90% or more of herbicidal effect and crop phytotoxicity)	5 (90% or more of herbicidal effect and crop phytotoxicity)							
CCn1ncc(C(=O)c2ccc(C(F)(F)F)n(CCOCCOC)c2=O)c1O [IV-203]	5 (90% or more of herbicidal effect and crop phytotoxicity)	5 (90% or more of herbicidal effect and crop phytotoxicity)	5 (90% or more of herbicidal effect and crop phytotoxicity)	5 (90% or more of herbicidal effect and crop phytotoxicity)	5 (90% or more of herbicidal effect and crop phytotoxicity)	5 (90% or more of herbicidal effect and crop phytotoxicity)	5 (90% or more of herbicidal effect and crop phytotoxicity)	5 (90% or more of herbicidal effect and crop phytotoxicity)	5 (90% or more of herbicidal effect and crop phytotoxicity)	5 (90% or more of herbicidal effect and crop phytotoxicity)	5 (90% or more of herbicidal effect and crop phytotoxicity)							
